# Source: BindingDB's records for doi:10.1021/jm00028a009 (Cambridge Neuroscience, 1994)
# Target: Sigma non-opioid intracellular receptor 1 (Cavia porcellus)
# Assay: Tested in vitro for the concentration required to inhibit specific [3H]DTG radioligand binding to sigma receptor on guinea pig brain membrane
row,SMILES,IC50
1,NC(=Nc1cccc2ccccc12)Nc1ccccc1I [N-(2-Iodo-phenyl)-N'-naphthalen-1-yl-guanidine],0.04 µM
2,"Cc1cccc(N=C(N)N(C)c2cccc(C)c2)c1 [N-Methyl-N,N'-di-m-tolyl-guanidine]",0.247 µM
3,CCc1cccc(N(CC)C(N)=Nc2cccc3ccccc23)c1 [N-Ethyl-N-(3-ethyl-phenyl)-N'-naphthalen-1-yl-guanidine],2.19 µM
4,"CCc1cccc(N(C)C(=N)N(C)c2cccc3ccccc23)c1 [N-(3-Ethyl-phenyl)-N,N'-dimethyl-N'-naphthalen-1-yl-guanidine]",1.21 µM
5,NC(=Nc1cccc2ccccc12)N1CCC(c2ccccc2)CC1 [N-Naphthalen-1-yl-4-phenyl-piperidine-1-carboxamidine],0.343 µM
6,CN(C(N)=Nc1cccc2ccccc12)c1cccc(N=[N+]=[N-])c1 [N-(3-Azido-phenyl)-N-methyl-N'-naphthalen-1-yl-guanidine],3.02 µM
7,CCc1cccc(N=C(N)N(C)c2cccc3ccccc23)c1 [N'-(3-Ethyl-phenyl)-N-methyl-N-naphthalen-1-yl-guanidine],1 µM
8,CN(C(N)=Nc1cccc(N)c1)c1cccc2ccccc12 [N'-(3-Amino-phenyl)-N-methyl-N-naphthalen-1-yl-guanidine],13 µM
9,CCc1cccc(N=C(N)N2CCC(c3ccccc3)CC2)c1 [N-(3-Ethyl-phenyl)-4-phenyl-piperidine-1-carboxamidine],0.06 µM
10,"NC(=Nc1ccc2ccccc2c1)Nc1ccc2ccccc2c1 [N,N'-Di-naphthalen-2-yl-guanidine]",0.092 µM
11,CC(C)c1cccc(N=C(N)Nc2cccc(C(C)C)c2)c1,0.096 µM
12,"CCN(C(N)=Nc1cccc2ccccc12)c1cccc2ccccc12 [N-Ethyl-N,N'-di-naphthalen-1-yl-guanidine]",6.13 µM
13,CCc1cccc(N=C(N)Nc2cccc(CC)c2)c1,0.008 µM
14,CCc1cccc(NC(N)=Nc2cccc3ccccc23)c1 [N-(3-Ethyl-phenyl)-N'-naphthalen-1-yl-guanidine],0.054 µM

# Continued by falling IC50, values first:
row,IC50,SMILES
1,11 µM,"CN(C(=N)N(c1ccccc1)c1cccc2ccccc12)c1cccc2ccccc12 [N-Methyl-N,N'-di-naphthalen-1-yl-N'-phenyl-guanidine]"
2,10.7 µM,"CN(C(=N)N(C)c1cccc2ccccc12)c1cccc2ccccc12 [N,N'-Dimethyl-N,N'-di-naphthalen-1-yl-guanidine]"
3,7.93 µM,"NC(=Nc1cccc2ccccc12)N(c1ccccc1)c1cccc2ccccc12 [N,N'-Di-naphthalen-1-yl-N-phenyl-guanidine]"
4,7.18 µM,"N=C(N1CCc2ccccc21)N1CCc2ccccc21 [C-[Bis-(2,3-dihydro-indol-1-yl)]-methyleneamine]"
5,6.26 µM,CN(/C(N)=N/c1cccc2ccccc12)c1cccc([N+](=O)[O-])c1 [N-Methyl-N'-naphthalen-1-yl-N-(3-nitro-phenyl)-guanidine]
6,4.8 µM,"CN(C(N)=Nc1cccc2ccccc12)c1cccc2ccccc12 [N-Methyl-N,N'-di-naphthalen-1-yl-guanidine]"
7,2.9 µM,CN(C(N)=Nc1cccc2ccccc12)c1ccccc1 [N-Methyl-N'-naphthalen-1-yl-N-phenyl-guanidine]
8,2.7 µM,CN(C(N)=Nc1cccc2ccccc12)c1cccc(N)c1 [N-(3-Amino-phenyl)-N-methyl-N'-naphthalen-1-yl-guanidine]
9,2.64 µM,C/[N+](=C(/[NH-])Nc1cccc([N+](=O)[O-])c1)c1cccc2ccccc12 [N-Methyl-N-naphthalen-1-yl-N'-(3-nitro-phenyl)-guanidine]
10,1.41 µM,NC(=Nc1cccc2ccccc12)N1CCCCCC1 [N-Naphthalen-1-yl-azepane-1-carboxamidine]
11,1.07 µM,NC(=Nc1cccc2ccccc12)N1CCCCC1 [N-Naphthalen-1-yl-piperidine-1-carboxamidine]
12,0.351 µM,"COc1cccc(N=C(N)Nc2cccc(OC)c2)c1 [N,N'-Bis-(3-methoxy-phenyl)-guanidine]"
13,0.242 µM,CC(C)c1ccc(N=C(N)Nc2ccc(C(C)C)cc2)cc1
14,0.165 µM,NC(=Nc1cccc2ccccc12)Nc1cccc2ccccc12
15,0.091 µM,CC(C)c1ccccc1N=C(N)Nc1cccc2ccccc12 [N-(2-Isopropyl-phenyl)-N'-naphthalen-1-yl-guanidine]
16,0.075 µM,Cc1cccc(NC(N)=Nc2cccc3ccccc23)c1 [N-Naphthalen-1-yl-N'-m-tolyl-guanidine]
17,0.033 µM,NC(=Nc1ccc(Br)cc1)Nc1ccc(Br)cc1
18,0.029 µM,"NC(=Nc1cccc2c1CCC2)Nc1cccc2c1CCC2 [N,N'-Di-indan-4-yl-guanidine]"
